Source: ChEMBL document CHEMBL5726965, “Heterocyclic compounds as LSD1 inhibitors” (2018)

Target: Lysine-specific histone demethylase 1A (Homo sapiens, UniProt O60341)
Test: Biochemical Assay: LANCE LSD1/KDM1A demethylase assay-10 μL of 1 nM LSD-1 enzyme (ENZO BML-SE544-0050) in the assay buffer (50 mM Tris, pH 7.5, 0.01% Tween-20, 25 mM NaCl, 5 mM DTT) were preincubated for 1 hour at 25° C. with 0.8 μL compound/DMSO dotted in black 384 well polystyrene plates. Reactions were started by addition of 10 μL of assay buffer containing 0.4 μM Biotin-labeled Histone H3 peptide substrate: ART-K(Mel)-QTARKSTGGKAPRKQLA-GGK(Biotin) SEQ ID NO: 1 (AnaSpec 64355) and incubated for 1 hour at 25° C. Reactions were stopped by addition of 10 μL 1×LANCE Detection Buffer (PerkinElmer CR97-100) supplemented with 1.5 nM Eu-anti-unmodified H3K4 Antibody (PerkinElmer TRF0404), and 225 nM LANCE Ultra Streptavidin (PerkinElmer TRF102) along with 0.9 mM Tranylcypromine-HCl (Millipore 616431). After stopping the reactions plates were incubated for 30 minutes and read on a PHERAstar FS plate reader (BMG Labtech).

Structure (SMILES): COC(=O)N(C)c1ccc(-c2c(-c3ccc(C#N)cc3)nc(N3CCC(N(C)C)CC3)n3ccnc23)cc1F
- IC50: < 50 nM

Structure (SMILES): COC(=O)N(C)c1cc(-c2c(-c3ccc(C#N)cc3)nc(OC[C@@H]3CCCN(C)C3)n3ccnc23)ccc1C
- IC50: < 50 nM

Structure (SMILES): COC(=O)N(C)c1ccc(-c2c(-c3ccc(C#N)cc3)nc(N3CCC(N(C)C)CC3)n3ccnc23)cc1
- IC50: < 50 nM
